Assay results taken from US20120295914A1, “COMBINATION OF ADRENERGIC RECEPTOR AGONIST ALPHA-1 OR ALPHA-2, PREFERABLY BRIMONIDINE WITH FILLERS, PREFERABLY HYALURONIC ACID” (Galderma Research & Development, priority 2009, published 2012).

Tests used:
[1] = in vivo; cited from earlier work
α2A-adrenoceptor = α2A-adrenoceptor (Sus scrofa, UniProt P18871); conditions: porcine species; Wikberg-Matsson and Simonsen 2001; cited from earlier work
[2] = system: dermabraded skin (cutaneous reactions, redness/bleeding)
Excerpt: In Vivo Dermabrasion Assays in Minipig Minizone Model Using a BURANE XL Laser and Skin Interaction with Brimonidine Gel
The objectives of this study were to assess the local dermal effect of single dermal application of Brimonidine Gel placebo or 1% applied on delimited abraded mini-zone (2.8 cm^2 and different dermabraded skin conditions) in the Gottingen® minipig.
One female Göttingen® minipig (naïve), between 4 and 8 months old, received Dermal (topical) application of Brimonidine Gel at 1% on delimited mini-zones (2.8 cm^2, using a Ringflost®).
each zone is clipped free from hair. On the clipped area (dorsum, avoiding the spinal column and the intra-scapular area), 4 minizones (2 on either side) is delimited using Ringflost® and surrounded with an indelible pen.
The animal is anesthetized (Zoletil®) before dermabrasion. Each minizone is disinfected with chlorexidine. The experimental conditions used for each zone is set as follows:
The Brimonidine gel 1% is gently applied 5 minutes prior to the dermabrasion procedure.
The cutaneous reaction is evaluated immediately, and 2-5 and 10 minutes after the dermabrasion procedure. The skin is examined to evaluate the degree of erythema, edema, desquamation, scab formation and any other lesions. Cutaneous reaction is evaluated according to the grading scale describe in “OCDE Guideline No. 404. Acute dermal irritation/corrosion”. […]

Sequence of α2A-adrenoceptor (P18871 whole entry): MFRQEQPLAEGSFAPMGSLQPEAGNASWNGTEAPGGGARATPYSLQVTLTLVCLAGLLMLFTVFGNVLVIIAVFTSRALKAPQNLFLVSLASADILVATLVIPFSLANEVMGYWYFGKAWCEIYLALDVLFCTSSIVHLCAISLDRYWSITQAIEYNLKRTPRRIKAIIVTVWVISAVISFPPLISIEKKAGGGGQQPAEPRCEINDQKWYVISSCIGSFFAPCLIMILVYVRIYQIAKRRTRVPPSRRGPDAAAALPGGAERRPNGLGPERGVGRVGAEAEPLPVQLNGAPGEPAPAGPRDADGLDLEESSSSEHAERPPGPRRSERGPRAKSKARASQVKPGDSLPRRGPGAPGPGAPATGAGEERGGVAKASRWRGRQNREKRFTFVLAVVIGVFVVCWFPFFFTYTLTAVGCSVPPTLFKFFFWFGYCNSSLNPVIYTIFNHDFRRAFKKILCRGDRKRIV

## Brc1c(NC2=NCCN2)ccc2nccnc12 [Brimonidine, (5-Bromo-quinoxalin-6-yl)-(4,5-dihydro-1H-imidazol-2-yl)-amine]
[1]
  half-life: 4 h
α2A-adrenoceptor
  vasoconstrictor activity: potent vasoconstrictor
[2]; Brimonidine gel 1% topical on dermabraded minizones, conclusion of Example 3
  cutaneous reactions (bruising or bleeding) during aesthetic or surgery procedures: capable of decreasing cutaneous reactions
[2]; Brimonidine gel 1% topical, applied 5 minutes prior to dermabrasion, 10 j/cm2, 6 passes, treated zone Z4 vs non-treated Z3, one female minipig
  vasoconstrictor effect (comparative analysis of pictures Z3 vs Z4): visually more evident starting from 5 min post-dermabrasion until 14 min and beyond
